Test results reported in patent US20030215462A1, “Use of UGT inhibitors to increase bioavailability” (priority 2001, published 2003).

Tests used:
UGT1A8 = target: T1, UGT1A8 (Homo sapiens, UniProt Q9HAW9); experiment: Inhibition of raloxifene glucuronidation by recombinant UGT1A8 Supersomes; conditions: for activity at 15 min, 10 µM / activity at 15 min, 50 µM: human, Supersomes with recombinant human UGT1A8, pH 7.5, probe raloxifene 50 μM; for activity at 15 min, 10 µM: inhibitor 10 μM; for activity at 15 min, 50 µM: inhibitor 50 μM
T1 sequence (Q9HAW9 26-530): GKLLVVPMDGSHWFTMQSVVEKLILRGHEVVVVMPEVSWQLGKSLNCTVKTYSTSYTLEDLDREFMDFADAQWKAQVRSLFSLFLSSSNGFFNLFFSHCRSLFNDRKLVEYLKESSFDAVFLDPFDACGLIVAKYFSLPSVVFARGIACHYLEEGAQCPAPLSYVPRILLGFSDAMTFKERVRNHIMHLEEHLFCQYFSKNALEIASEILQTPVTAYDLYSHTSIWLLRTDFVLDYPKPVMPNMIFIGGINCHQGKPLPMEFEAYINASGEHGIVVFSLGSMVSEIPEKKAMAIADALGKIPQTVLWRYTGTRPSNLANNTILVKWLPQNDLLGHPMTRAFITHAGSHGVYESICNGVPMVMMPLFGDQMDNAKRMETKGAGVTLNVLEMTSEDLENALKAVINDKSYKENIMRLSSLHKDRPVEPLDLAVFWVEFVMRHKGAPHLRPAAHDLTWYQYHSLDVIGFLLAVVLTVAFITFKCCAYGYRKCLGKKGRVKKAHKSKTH
Procedure: (§2) Compounds were eluted using a binary solvent gradient system. Solvent A was water brought to pH 8 with NH4OH. Solvent B was methanol. Solvent flow rate was 1 ml/min and the column temperature was maintained at 50° C. Detection was at 280 nm. […] The system was then returned to the initial conditions and equilibrated for 3 min.

[1] = system: UGT enzymes of pooled human jejunum microsomes; experiment: Inhibition of 2ME2 glucuronidation (MG1) in pooled human jejunum microsomes; format: biochemical; conditions: jejunum HJ61, 2ME2 50 μM
From the text: (§1) Compounds were eluted using a binary solvent gradient system where solvent A was dilute phosphoric acid (pH 3) and solvent B was 80:20 acetonitrile-methanol. […] Detection was at 280 nm.

[2] = system: UGT enzymes of human liver microsomes; experiment: Inhibition of 2ME2 glucuronidation (MG1, MG2) in human liver microsomes; format: biochemical; conditions: liver 062101, 2ME2 50 μM
From the text: as §1

[3] = system: UGT enzymes of pooled human jejunum microsomes; experiment: Inhibition of raloxifene glucuronidation (G1, G2) in pooled human jejunum microsomes; format: biochemical; conditions: jejunum HJ61
Procedure: Compounds were eluted using a binary solvent gradient system. […] Solvent B was methanol. […] Detection was at 280 nm.
Standardized incubations utilized […] microsomal protein, 1 mM UDPGA and a 30 min incubation time.

[4] = system: UGT enzymes of pooled human jejunum microsomes; experiment: Inhibition of estradiol (E2) glucuronidation in pooled human jejunum microsomes; format: biochemical; conditions: jejunum HJ61, E2 50 μM
From the text: as §1

UGT1A10 = target: T2, UGT1A10 (Homo sapiens, UniProt Q9HAW8); experiment: in vitro; conditions: pH 7.5, % of control metabolism
T2 sequence (Q9HAW8 26-530): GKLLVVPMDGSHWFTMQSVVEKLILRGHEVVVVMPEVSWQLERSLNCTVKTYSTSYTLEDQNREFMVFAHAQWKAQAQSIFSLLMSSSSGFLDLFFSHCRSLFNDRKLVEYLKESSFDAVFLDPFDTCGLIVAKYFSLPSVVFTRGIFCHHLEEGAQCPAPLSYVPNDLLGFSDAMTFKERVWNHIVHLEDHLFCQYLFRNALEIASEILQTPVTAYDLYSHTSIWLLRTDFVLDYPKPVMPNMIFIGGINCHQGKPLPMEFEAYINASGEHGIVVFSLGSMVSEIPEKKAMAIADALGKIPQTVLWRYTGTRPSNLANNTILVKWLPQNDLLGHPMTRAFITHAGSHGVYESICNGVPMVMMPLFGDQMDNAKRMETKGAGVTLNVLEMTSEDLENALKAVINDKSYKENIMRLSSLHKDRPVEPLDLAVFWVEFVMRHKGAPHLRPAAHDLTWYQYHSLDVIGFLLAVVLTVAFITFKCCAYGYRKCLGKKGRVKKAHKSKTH
Procedure: as §2

UGT1A1 = target: T3, UGT1A1 (Homo sapiens, UniProt P22309); experiment: in vitro
T3 sequence (P22309 26-533): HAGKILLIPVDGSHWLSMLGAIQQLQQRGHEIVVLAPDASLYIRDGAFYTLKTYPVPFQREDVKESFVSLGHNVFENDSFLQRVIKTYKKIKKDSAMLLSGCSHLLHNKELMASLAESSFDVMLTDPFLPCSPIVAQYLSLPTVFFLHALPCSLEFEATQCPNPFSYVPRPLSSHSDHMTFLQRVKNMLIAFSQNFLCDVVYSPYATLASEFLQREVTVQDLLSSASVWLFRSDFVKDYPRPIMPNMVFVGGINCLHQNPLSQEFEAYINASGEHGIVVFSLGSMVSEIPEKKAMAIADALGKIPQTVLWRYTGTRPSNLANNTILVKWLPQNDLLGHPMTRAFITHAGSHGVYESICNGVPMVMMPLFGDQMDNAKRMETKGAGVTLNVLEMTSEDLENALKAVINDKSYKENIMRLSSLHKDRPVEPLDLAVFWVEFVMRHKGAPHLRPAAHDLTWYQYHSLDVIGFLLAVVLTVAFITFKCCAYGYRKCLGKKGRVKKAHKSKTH
Procedure: as §2

[5] = formation of glucuronide G1, % of control metabolism, raloxifene G1, UGT1A8
[6] = formation of glucuronide G2, % of control metabolism, raloxifene G2, UGT1A8
[7] = pH 7.5, % of control metabolism, raloxifene G1
[8] = pH 7.5, % of control metabolism, raloxifene G2
[9] = pH 7.5, Inhibition of raloxifene glucuronidation, G1, UGT1A1
[10] = pH 7.5, Inhibition of raloxifene glucuronidation, G2, UGT1A1

CC/C(=C(/CC)c1ccc(O)cc1)c1ccc(O)cc1 [Diethylstilbestrol, reference compound]
activity at 15 min, 10 µM (UGT1A8; [5]): 156% | activity at 15 min, 10 µM (UGT1A8; [6]): 73% | residual metabolism (% of control), 2ME2 MG1 ([1]; inhibitor 1 μM): 93 (4) % | residual metabolism (% of control), 2ME2 MG1 ([1]; inhibitor 10 μM): 75 (1) % | residual metabolism (% of control), 2ME2 MG1 ([2]; inhibitor 1 μM): 88 (2) % | residual metabolism (% of control), 2ME2 MG2 ([2]; inhibitor 1 μM): 335 (5) % | residual metabolism (% of control), 2ME2 MG1 ([2]; inhibitor 10 μM): 72 (2) % | residual metabolism (% of control), 2ME2 MG2 ([2]; inhibitor 10 μM): 632 (4) % | % of control metabolism, raloxifene G1 ([3]; inhibitor 10 μM): 78 (0) % | % of control metabolism, raloxifene G2 ([3]; inhibitor 10 μM): 90 (4) % | residual metabolism (% of control), E2-3-β-D-glucuronide ([4]; inhibitor 1 μM): 86 (2) % | residual metabolism (% of control), E2-17-β-D-glucuronide ([4]; inhibitor 1 μM): 108 (5) % | residual metabolism (% of control), E2-3-β-D-glucuronide ([4]; inhibitor 10 μM): 53 (4) % | residual metabolism (% of control), E2-17-β-D-glucuronide ([4]; inhibitor 10 μM): 78 (3) % | residual metabolism (% of control), E2-3-β-D-glucuronide ([4]; inhibitor 100 μM): 5 (1) % | residual metabolism (% of control), E2-17-β-D-glucuronide ([4]; inhibitor 100 μM): 24 (4) %

O=C(O[C@@H]1Cc2c(O)cc(O)cc2O[C@H]1c1cc(O)c(O)c(O)c1)c1cc(O)c(O)c(O)c1 [Gallocatechin gallate]
activity at 15 min, 50 µM (UGT1A8; [5]): 36% | activity at 15 min, 50 µM (UGT1A8; [6]): 35% | residual metabolism (% of control), 2ME2 MG1 ([1]; inhibitor 10 μM): 69 (3) % | residual metabolism (% of control), 2ME2 MG1 ([1]; inhibitor 25 μM): 51 (2) % | residual metabolism (% of control), 2ME2 MG1 ([1]; inhibitor 50 μM): 31 (1) % | residual metabolism (% of control), 2ME2 MG1 ([1]; inhibitor 100 μM): 9 (1) % | residual metabolism (% of control), 2ME2 MG1 ([2]; inhibitor 10 μM): 56 (1) % | residual metabolism (% of control), 2ME2 MG2 ([2]; inhibitor 10 μM): 84 (1) % | % of control metabolism, raloxifene G1 ([3]; inhibitor 50 μM): 10 (0), 10 (0) % | % of control metabolism, raloxifene G2 ([3]; inhibitor 50 μM): 10 (0), 10 (0) % | residual metabolism (% of control), E2-3-β-D-glucuronide ([4]; inhibitor 50 μM): 25 (1) % | residual metabolism (% of control), E2-17-β-D-glucuronide ([4]; inhibitor 50 μM): 39 (1) %

O=c1c(O)c(-c2ccc(O)c(O)c2)oc2cc(O)cc(O)c12 [Quercetin]
activity at 15 min, 25 µM (UGT1A10; raloxifene G1): 80% | activity at 15 min, 50 µM (UGT1A10; raloxifene G1): 55% | activity at 15 min, 25 µM (UGT1A10; raloxifene G2): 80% | activity at 15 min, 50 µM (UGT1A10; raloxifene G2): 48% | inhibition of raloxifene glucuronidation, in words (UGT1A8; UGT1A8): ineffective | activity at 15 min, 10 µM (UGT1A1; [7]): 45% | activity at 15 min, 25 µM (UGT1A1; [7]): 13% | activity at 15 min, 50 µM (UGT1A1; [7]): 2% | activity at 15 min, 10 µM (UGT1A1; [8]): 43% | activity at 15 min, 25 µM (UGT1A1; [8]): 13% | activity at 15 min, 50 µM (UGT1A1; [8]): 3% | activity at 15 min, 2 μM (UGT1A1; [9]): 89% | activity at 15 min, 5 µM (UGT1A1; [9]): 71% | activity at 15 min, 25 µM (UGT1A1; [9]): 13% | activity at 15 min, 50 µM (UGT1A1; [9]): 2% | activity at 15 min, 2 μM (UGT1A1; [10]): 90% | activity at 15 min, 5 µM (UGT1A1; [10]): 70% | activity at 15 min, 25 µM (UGT1A1; [10]): 13% | activity at 15 min, 50 µM (UGT1A1; [10]): 3% | residual metabolism (% of control), 2ME2 MG1 ([1]; inhibitor 25 μM): 56 (2) % | residual metabolism (% of control), 2ME2 MG1 ([1]; inhibitor 50 μM): 44 (2) % | residual metabolism (% of control), 2ME2 MG1 ([1]; inhibitor 100 μM): 19 (1) % | % of control metabolism, raloxifene G1 ([3]; inhibitor 50 μM): 25 (1) % | % of control metabolism, raloxifene G2 ([3]; inhibitor 50 μM): 37 (2) % | residual metabolism (% of control), E2-3-β-D-glucuronide ([4]; inhibitor 25 μM): 44 (5) % | residual metabolism (% of control), E2-17-β-D-glucuronide ([4]; inhibitor 25 μM): 72 (3) % | residual metabolism (% of control), E2-3-β-D-glucuronide ([4]; inhibitor 50 μM): 29 (2) % | residual metabolism (% of control), E2-17-β-D-glucuronide ([4]; inhibitor 50 μM): 56 (2) % | residual metabolism (% of control), E2-3-β-D-glucuronide ([4]; inhibitor 100 μM): 12 (1) % | residual metabolism (% of control), E2-17-β-D-glucuronide ([4]; inhibitor 100 μM): 42 (7) %

O=C(OC[C@H]1O[C@@H](OC(=O)c2cc(O)c(O)c(OC(=O)c3cc(O)c(O)c(O)c3)c2)[C@H](OC(=O)c2cc(O)c(O)c(OC(=O)c3cc(O)c(O)c(O)c3)c2)[C@@H](OC(=O)c2cc(O)c(O)c(OC(=O)c3cc(O)c(O)c(O)c3)c2)[C@@H]1OC(=O)c1cc(O)c(O)c(OC(=O)c2cc(O)c(O)c(O)c2)c1)c1cc(O)c(O)c(OC(=O)c2cc(O)c(O)c(O)c2)c1 [Tannic acid]
activity at 15 min, 10 µM (UGT1A8; [5]): 73% | activity at 15 min, 10 µM (UGT1A8; [6]): 75% | residual metabolism (% of control), 2ME2 MG1 ([1]; inhibitor 2 μM): 63 (1) % | residual metabolism (% of control), 2ME2 MG1 ([1]; inhibitor 5 μM): 49 (1) % | residual metabolism (% of control), 2ME2 MG1 ([1]; inhibitor 10 μM): 42 (1) % | residual metabolism (% of control), 2ME2 MG1 ([1]; inhibitor 25 μM): 5 (0) % | residual metabolism (% of control), 2ME2 MG1 ([1]; inhibitor 50 μM): <LOQ | residual metabolism (% of control), 2ME2 MG1 ([2]; inhibitor 2 μM): 62 (2) % | residual metabolism (% of control), 2ME2 MG2 ([2]; inhibitor 2 μM): 105 (3) % | residual metabolism (% of control), 2ME2 MG1 ([2]; inhibitor 5 μM): 39 (0) % | residual metabolism (% of control), 2ME2 MG2 ([2]; inhibitor 5 μM): 91 (5) % | residual metabolism (% of control), 2ME2 MG1 ([2]; inhibitor 10 μM): 24 (1) % | residual metabolism (% of control), 2ME2 MG2 ([2]; inhibitor 10 μM): 69 (6) % | % of control metabolism, raloxifene G1 ([3]; inhibitor 10 μM): 39 (7) % | % of control metabolism, raloxifene G2 ([3]; inhibitor 10 μM): 47 (8) % | residual metabolism (% of control), E2-3-β-D-glucuronide ([4]; inhibitor 10 μM): 18 (1) % | residual metabolism (% of control), E2-17-β-D-glucuronide ([4]; inhibitor 10 μM): 17 (1) %
